Experimental data: US8383629B2, “Inhibitors of 11β-hydroxysteroid dehydrogenase type 1” (Vitae Pharmaceuticals, Inc., priority 2008, dated 2013)

Target: T1, human 11β-HSD1 (Homo sapiens, UniProt P28845)
T1 construct: expressed in transfected cells; host or cells: CHO cells (microsomes)
Assay: Inhibition of microsomal preparation of 11β-HSD1 (SPA, Biological Test Example 1)
Format: biochemical
Conditions: for inhibition at 0.111 µM: 111 nM; for IC50: microsomes from CHO cells overexpressing human 11β-HSD1, read-out: IC50 Range; for inhibition at 0.1 µM: 100 nM
Description: The inhibition of microsomal preparation of 11β-HSD1 by compounds of the invention was measured essentially as previously described (K. Solly, S. S. Mundt, H. J. Zokian, G. J. Ding, A. Hermanowski-Vosatka, B. Strulovici, and W. Zheng, High-Throughput Screening of 11-Beta-Hydroxysteroid Dehydrogenase Type 1 in Scintillation Proximity Assay Format. Assay Drug Dev Technol 3 (2005) 377-384). All reactions were carried out at rt in 96 well clear flexible PET Microbeta plates (PerkinElmer). The assay begins by dispensing 49 μl of substrate solution (50 mM HEPES, pH 7.4, 100 mM KCl, 5 mM NaCl, 2 mM MgCl2, 2 mM NADPH and 160 nM [^3H]cortisone (1 Ci/mmol)) and mixing in 1 μL of the test compounds in DMSO previously diluted in half-log increments (8 points) starting at 0.1 mM. After a 10 minute pre-incubation, 50 μL of enzyme solution containing microsomes isolated from CHO cells overexpressing human 11β-HSD1 (10-20 μg/ml of total protein) was added, and the plates were incubated for 90 minutes at rt. The reaction was stopped by adding 50 μl of the SPA beads suspension containing 10 μM 18β-glycyrrhetinic acid, 5 mg/ml protein A coated YSi SPA beads (GE Healthcare) and 3.3 μg/ml of anti-cortisol antibody (East Coast Biologics) in Superblock buffer (Bio-Rad). The plates were shaken for 120 minutes at rt, and the SPA signal corresponding to [^3H]cortisol was measured on a Microbeta plate reader.

T1 sequence (P28845 whole entry): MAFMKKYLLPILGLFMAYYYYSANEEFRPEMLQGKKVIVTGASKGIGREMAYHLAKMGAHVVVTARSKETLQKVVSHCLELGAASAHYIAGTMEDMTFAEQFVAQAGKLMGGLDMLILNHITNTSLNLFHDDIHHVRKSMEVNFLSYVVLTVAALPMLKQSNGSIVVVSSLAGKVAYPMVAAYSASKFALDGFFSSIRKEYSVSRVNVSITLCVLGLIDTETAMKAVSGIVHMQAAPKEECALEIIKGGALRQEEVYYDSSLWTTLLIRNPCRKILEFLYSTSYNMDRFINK

inhibition at 0.111 µM [%]	IC50 [µM]	inhibition at 0.1 µM [%]	Compound
68.9	0.1 to 1	–	O=C1NC2(CCN(C(=O)Cc3ccccc3C(F)(F)F)CC2)c2c(Cl)cc(Cl)cc21 [EXAMPLE 50, 5,7-dichloro-1′-(2-(2-(trifluoromethyl)phenyl)acetyl)spiro[isoindoline-1,4′-piperidin]-3-one]
–	< 0.1	76.8	O=C(O)CC1CC2(CCN(C(=O)Cc3ccccc3C(F)(F)F)CC2)c2c(Cl)cccc21 (stereo not drawn) [EXAMPLE 51, 2-(7-chloro-1′(2-(2-(trifluoromethyl)phenyl)acetyl)-2,3-dihydrospiro[indene-1,4′-piperidine]-3-yl)acetic acid]
–	< 0.1	61.2	O=C(O)CC1CC2(CCN(C(=O)Cc3ccccc3OC(F)(F)F)CC2)c2c(Cl)cccc21 (stereo not drawn) [EXAMPLE 52, 2-(7-chloro-1′-(2-(2-(trifluoromethoxy)phenyl)acetyl)-2,3-dihydrospiro[indene-1,4′-piperidine]-3-yl)acetic acid]
–	< 0.1	67.2	O=C(O)CC1CC2(CCN(C(=O)Cc3ccc(F)cc3C(F)(F)F)CC2)c2c(Cl)cccc21 (stereo not drawn) [EXAMPLE 53, 2-(7-chloro-1′(2-(4-fluoro-2-(trifluoromethyl)phenyl)acetyl)-2,3-dihydrospiro[indene-1,4′-piperidine]-3-yl)acetic acid]
–	< 0.1	71.7	O=C(O)CC1CC2(CCN(C(=O)Cc3ccc(Cl)cc3C(F)(F)F)CC2)c2c(Cl)cccc21 (stereo not drawn) [EXAMPLE 54, 2-(7-chloro-1′(2-(4-chloro-2-(trifluoromethyl)phenyl)acetyl)-2,3-dihydrospiro[indene-1,4′-piperidine]-3-yl)acetic acid]
76.5	< 0.1	–	CN1C(=O)c2ccccc2C12CCN(C(=O)CCc1ccccc1C(F)(F)F)CC2 [EXAMPLE 55, 2-methyl-1′-(3-(2-(trifluoromethyl)phenyl)propanoyl)spiro[isoindoline-1,4′-piperidin]-3-one]
92.7	< 0.1	–	CCOC(=O)CC1CC2(CCN(C(=O)CCc3ccccc3C(F)(F)F)CC2)c2c(Br)cccc21 (stereo not drawn) [EXAMPLE 56, Ethyl 2-(7-bromo-1′-(3-(2-(trifluoromethyl)phenyl)propanoyl)-2,3-dihydrospiro[indene-1,4′-piperidine]-3-yl)acetate]
37.6	0.1 to 1	–	CC(C)(C)OC(=O)N1Cc2ccccc2C2(CCN(C(=O)CCc3ccccc3C(F)(F)F)CC2)C1 [EXAMPLE 57, tert-butyl 1′-(3-(2-(trifluoromethyl)phenyl)propanoyl)-1H-spiro[isoquinoline-4,4′-piperidine]-2(3H)-carboxylate]
87.4	< 0.1	97.1	O=C(O)CC1CC2(CCN(C(=O)CCc3ccccc3C(F)(F)F)CC2)c2c(Br)cccc21 (stereo not drawn) [EXAMPLE 58, 2-(7-bromo-1′-(3-(2-(trifluoromethyl)phenyl)propanoyl)-2,3-dihydrospiro[indene-1,4′-piperidine]-3-yl)acetic acid]
66.6	< 0.1	–	O=C(CCc1ccccc1C(F)(F)F)N1CCC2(CC1)CNCc1ccccc12 [EXAMPLE 59, 1-(2,3-dihydro-1H-spiro[isoquinoline-4,4′-piperidine]-1′-yl)-3-(2-(trifluoromethyl)phenyl)propan-1-one]
92.6	< 0.1	–	CS(=O)(=O)N1Cc2ccccc2C2(CCN(C(=O)CCc3ccccc3C(F)(F)F)CC2)C1 [EXAMPLE 60, 1-(2-(methylsulfonyl)-2,3-dihydro-1H-spiro[isoquinoline-4,4′-piperidine]-1′-yl)-3-(2-(trifluoromethyl)phenyl)propan-1-one]
96.7	< 0.1	93.3	CN1C(=O)c2cccc(Cl)c2C12CCN(C(=O)CCc1ccccc1C(F)(F)F)CC2 [EXAMPLE 61, 7-chloro-2-methyl-1′-(3-(2-(trifluoromethyl)phenyl)propanoyl)spiro[isoindoline-1,4′-piperidin]-3-one]
87.2	< 0.1	–	COc1ccc2c(c1)CCNC21CCN(C(=O)CCc2ccccc2C(F)(F)F)CC1 [EXAMPLE 62, 1-(6-methoxy-3,4-dihydro-2H-spiro[isoquinoline-1,4′-piperidine]-1′-yl)-3-(2-(trifluoromethyl)phenyl)propan-1-one]
22.5	0.1 to 1	–	COc1ccc2c(c1)CCNC21CCN(C(=O)CCc2ccccc2C)CC1 [EXAMPLE 63, 1-(6-methoxy-3,4-dihydro-2H-spiro[isoquinoline-1,4′-piperidine]-1′-yl)-3-o-tolylpropane-1-one]
100	< 0.1	–	O=C(CCc1ccccc1C(F)(F)F)N1CCC2(CC1)CC(O)c1cccc(Br)c12 (stereo not drawn) [EXAMPLE 64, 1-(7-bromo-3-hydroxy-2,3-dihydrospiro[indene-1,4′-piperidine]-1′-yl)-3-(2-(trifluoromethyl)phenyl)propan-1-one]
87.7	< 0.1	–	O=C1NC2(CCN(C(=O)CCc3ccccc3C(F)(F)F)CC2)c2c(Cl)cccc21 [EXAMPLE 65, 7-chloro-1′-(3-(2-(trifluoromethyl)phenyl)propanoyl)spiro[isoindoline-1,4′-piperidin]-3-one]
92.1	< 0.1	–	NC1CC2(CCN(C(=O)CCc3ccccc3C(F)(F)F)CC2)c2c(Br)cccc21 (stereo not drawn) [EXAMPLE 66, 1-(3-amino-7-bromo-2,3-dihydrospiro[indene-1,4′-piperidine]-1′-yl)-3-(2-(trifluoromethyl)phenyl)propan-1-one]
–	< 0.1	100	O=C(CCc1ccccc1C(F)(F)F)N1CCC2(CC1)C(=O)Nc1ccccc12 [EXAMPLE 67, 1′-(3-(2-(trifluoromethyl)phenyl)propanoyl)spiro[indoline-3,4′-piperidin]-2-one]
81.5	< 0.1	–	CNC(=O)N1Cc2ccccc2C2(CCN(C(=O)CCc3ccccc3C(F)(F)F)CC2)C1 [EXAMPLE 68, N-methyl-1′-(3-(2-(trifluoromethyl)phenyl)propanoyl)-1H-spiro[isoquinoline-4,4′-piperidine]-2(3H)-carboxamide]
93.8	< 0.1	93.5	CN1C(=O)C2(CCN(C(=O)CCc3ccccc3C(F)(F)F)CC2)c2ccccc21 [EXAMPLE 69, 1-methyl-1′-(3-(2-(trifluoromethyl)phenyl)propanoyl)spiro[indoline-3,4′-piperidin]-2-one]
93.9	< 0.1	–	O=C1NC2(CCN(C(=O)CCc3ccccc3C(F)(F)F)CC2)c2c(Br)cccc21 [EXAMPLE 71, 7-bromo-1′-(3-(2-(trifluoromethyl)phenyl)propanoyl)spiro[isoindoline-1,4′-piperidin]-3-one]
82.4	< 0.1	–	O=C1NC2(CCN(C(=O)CCc3ccccc3C(F)(F)F)CC2)c2c(Cl)cc(Cl)cc21 [EXAMPLE 72, 5,7-dichloro-1′-(3-(2-(trifluoromethyl)phenyl)propanoyl)spiro[isoindoline-1,4′-piperidin]-3-one]
95.4	< 0.1	96.6	O=C(O)CC1CC2(CCN(C(=O)CCc3ccccc3C(F)(F)F)CC2)c2c(Cl)cccc21 (stereo not drawn) [EXAMPLE 73, 2-(7-chloro-1′-(3-(2-(trifluoromethyl)phenyl)propanoyl)-2,3-dihydrospiro[indene-1,4′-piperidine]-3-yl)acetic acid]
89.5	< 0.1	–	O=C(O)CC1CC2(CCN(C(=O)CCc3ccccc3Cl)CC2)c2c(Cl)cccc21 (stereo not drawn) [EXAMPLE 74, 2-(7-chloro-1′-(3-(2-chlorophenyl)propanoyl)-2,3-dihydrospiro[indene-1,4′-piperidine]-3-yl)acetic acid]
52.2	< 0.1	–	O=C(O)CC1CC2(CCN(C(=O)CCc3ccc(Cl)cc3Cl)CC2)c2c(Cl)cccc21 (stereo not drawn) [EXAMPLE 75, 2-(7-chloro-1′-(3-(2,4-dichlorophenyl)propanoyl)-2,3-dihydrospiro[indene-1,4′-piperidine]-3-yl)acetic acid]
60	< 0.1	–	COC(=O)c1ccc2c(c1)C1(CCN(C(=O)CCc3ccccc3C(F)(F)F)CC1)C(=O)N2C [EXAMPLE 76, 1-methyl-2-oxo-1′-(3-(2-(trifluoromethyl)phenyl)propanoyl)spiro[indoline-3,4′-piperidine]-5-carboxylate]
26.3	0.1 to 1	–	CN1C(=O)C2(CCN(C(=O)CCc3ccccc3C(F)(F)F)CC2)c2cc(C(N)=O)ccc21 [EXAMPLE 77, 1-methyl-2-oxo-1′-(3-(2-(trifluoromethyl)phenyl)propanoyl)spiro[indoline-3,4′-piperidine]-5-carboxamide]
52.4	< 0.1	–	CCN1C(=O)C2(CCN(C(=O)CCc3ccccc3C(F)(F)F)CC2)c2cc(C(=O)OC)ccc21 [EXAMPLE 78, Methyl 1-ethyl-2-oxo-1′-(3-(2-(trifluoromethyl)phenyl)propanoyl)spiro[indoline-3,4′-piperidine]-5-carboxylate]
